Source: US5428051A, “Methods of combating pneumocystis carinii pneumonia and compounds useful therefor” (priority 1992, dated 1995)
Read-outs that look alike come from different tables or passages of the source.

Tests used:
Pneumocystis carinii [1] = experiment: Treatment of Pneumocystis carinii pneumonia in rats: cyst count in lung homogenate (cresyl violet); assay type: in vivo, Sprague-Dawley rats; conditions: for response vs control in vivo at 5 mg/kg / response vs control in vivo at 10 mg/kg: Pneumocystis carinii, iv, 336 h, read-out: Cysts/g Lung (% of Control)
Procedure: (§1) Induction and Treatment of Pneumocystis carinii in Sprague-Dawley Rats
(§2) Male Sprague-Dawley rats, barrier raised, non-certified virus free, weighing 150-200 g were obtained from Hilltop Laboratories and housed individually. Animals were begun on a low (8%) protein diet (ICN Biomedicals, Cincinnati, Ohio) and drinking water containing tetracycline (0.5 mg/ml) and dexamethasone (1.0 μg/ml). This treatment was given for the next 8 weeks, monitoring fluid intake daily and weighing animals weekly. Dilutions of the drinking solution were made when animals consumed too much fluid so as to prevent cortisone poisoning. At the beginning of the sixth week animals were divided into groups of eight or more animals each and the test compounds were administered daily by i.v. injection into the tail vein at the indicated dose for the next 14 days or orally by gavage for the next 14 days.
The left lung was weighed, ground through a #60 wire mesh, and suspended 1:10 (w/v) in Hank's balanced salts solution without cations (HBSS-) and 10 mM β-mercaptoethanol (β-Me). Slides were prepared by spotting 5 μl of lung homogenate diluted 1:10 in HBSS- with β-Me and allowed to air dry. The slides were stained with cresyl violet and the cysts were counted using a blinded protocol. The number of cysts/g of original lung tissue was calculated and the groups were reported as the percent of saline-treated controls.

Pneumocystis carinii [2] = experiment: Treatment of Pneumocystis carinii pneumonia in rats: histologic scoring of lung cysts (GMS stain); assay type: in vivo, Sprague-Dawley rats; set-up: key to Mean Histologic Score: lung cyst score: 0.5 = <10 cysts, 4 = >50% of lung tissue involved; conditions: daily i.v., 14 days; for No. of animals with histologic score 0.5: 0.5 = less than 10 cysts per two sections; for No. of animals with histologic score 1: 1 = <10% of lung tissue involved; for No. of animals with histologic score 2: 2 = 10 to 25% of lung tissue involved; for No. of animals with histologic score 3: 3 = 26 to 50% of lung tissue involved; for No. of animals with histologic score 4: 4 = >50% of lung tissue involved; for Mean Histologic Score: score scale 0.5-4
Procedure: as §1, §2
All animals were sacrificed at the end of the eighth week by chloroform inhalation and the right lung was inflated in situ with 10% formalin and fixed for histologic examination. The fixed lung tissue was sectioned longitudinally and stained with Grocott's methenamine silver (GMS) stain which selectively stains the walls of th P. carinii cysts. Stained sections were coded and each section was scored by 2 examiners using a blinded protocol. Sections were read and scored according to modification of known procedures (P. Walzer et al., Antimicrob. Agents. Chemother. 32: 896-905 (1988)) as follows: 0.5=less than 10 cysts counted per two fully examinec sections; 1=scattered cysts with <10% of lung tissue involved; 2=scattered cysts with limited intense focal involvement and 10 to 25% of lung tissue involved; 3=scattered cysts with numerous intense areas of focal involvement and 26 to 50% of lung tissue involved; 4=cysts found throughout the tissue with numerous very intense focal areas of involvement having >50% of lung tissue involved.
The Chi square goodness of fit was used to calculate the p values of each test group when compared to the saline-treated and pentamidine-treated groups. The statistical analysis was carried out using the StatView 512+ software package (Brainpower, Inc., Calabasas, Calif.) on a Macintosh II computer.

Giardia lamblia = experiment: In vitro activity against Giardia lamblia ([3H]-thymidine incorporation); assay type: cell-based, strain WB (ATCC #30957); conditions: 42 hours, 37° C., read-out: IC50 ± S.D. In Vitro Antigiaridal Activity
Procedure: In vitro Biological Activity of Bis-Benzimidazoles Against Giardia lamblia
In brief, Giardia lamblia, strain WB (ATCC #30957) was grown to early log phase in filter sterilized Keister's medium with 10% heat-inactivated fetal bovine serum and 50 μg/ml ampicillin and 50 μg/ml gentamicin sulfate. Assay medium was modified Keister's medium plus 5% heat-inactivated fetal bovine serum. The assay procedure was carried out in accordance with the following steps:
(1) (0 hours) Serial dilutions of diamidines suspended in assay medium were prepared in duplicate rows of a 96-well microtiter plate and 2.5×10^4 trophozoites were added to each well. Plates were placed in an anaerobic chamber, gassed with nitrogen, and incubated at 37° C.
(2) (24 hours) Added [methyl-^3 H]-thmidine (1-10 Ci/mmol) to yield 1.5-2 μCi/well.
(3) (42 hours) Harvested cells with multimash-type cell harvester onto glass microfiber paper. Washed and dried filters were counted using a scintillation counter to determine the incorporation of [^3 H]-thymidine.
(4) Data on uptake of [^3 H]-thymidine were fitted to a logistic-logarithmic concentration response function by a non-linear regression method and drug concentrations required to inhibit 50% incorporation of [^3 H]-thymidine were determined.

[3] = Toxicity of the test compounds in rats (graded by local, clinical and histologic criteria); assay type: in vivo, Sprague-Dawley rats; conditions: for Toxicity: 10.0 mg/kg, daily i.v., 14 days
Procedure: as §2

[4] = patients, intramuscular and intravenous routes; cited from earlier work
Pneumocystis carinii [5] = experiment: Anti-PCP activity in rats; assay type: in vivo, Sprague-Dawley rats
[6] = daily i.v., 14 days, vs. saline-treated controls
[7] = 10.0 mg/kg, daily i.v., 14 days, vs. saline-treated controls

Compound	IC50 (Giardia lamblia; Giardia duodenalis)	No. of animals with histologic score 0.5 (Pneumocystis carinii [2]; 10.0 mg/kg)	No. of animals with histologic score 1 (Pneumocystis carinii [2]; 10.0 mg/kg)	No. of animals with histologic score 2 (Pneumocystis carinii [2]; 10.0 mg/kg)	No. of animals with histologic score 3 (Pneumocystis carinii [2]; 10.0 mg/kg)	No. of animals with histologic score 4 (Pneumocystis carinii [2]; 10.0 mg/kg)	Mean Histologic Score (Pneumocystis carinii [2]; 10.0 mg/kg)	response vs control in vivo at 10 mg/kg (Pneumocystis carinii [1]; [7])	further results
N=C(N)c1ccc2nc(/C=C/c3nc4ccc(C(=N)N)cc4[nH]3)[nH]c2c1 [Compound 10, trans-1,2-bis[5-amidino-2-benzimidazolyl]ethene]									response vs control in vivo at 5 mg/kg (Pneumocystis carinii [1]; [6]): 2.14%; No. of animals with histologic score 0.5 (Pneumocystis carinii [2]; 5.0 mg/kg): 1 animals; No. of animals with histologic score 1 (Pneumocystis carinii [2]; 5.0 mg/kg): 5 animals; No. of animals with histologic score 2 (Pneumocystis carinii [2]; 5.0 mg/kg): 5 animals; No. of animals with histologic score 3 (Pneumocystis carinii [2]; 5.0 mg/kg): 1 animals; No. of animals with histologic score 4 (Pneumocystis carinii [2]; 5.0 mg/kg): 0 animals; Mean Histologic Score (Pneumocystis carinii [2]; 5.0 mg/kg): 1.5
N=C(N)c1ccc2nc(CCCCCCCCc3nc4ccc(C(=N)N)cc4[nH]3)[nH]c2c1 [Compound 9, 1,8-bis[5-amidino-2-benzimidazolyl]octane]	0.04 ± 0.01 µM								response vs control in vivo at 5 mg/kg (Pneumocystis carinii [1]; [6]): 31.8%; No. of animals with histologic score 0.5 (Pneumocystis carinii [2]; 5.0 mg/kg): 1 animals; No. of animals with histologic score 1 (Pneumocystis carinii [2]; 5.0 mg/kg): 0 animals; No. of animals with histologic score 2 (Pneumocystis carinii [2]; 5.0 mg/kg): 8 animals; No. of animals with histologic score 3 (Pneumocystis carinii [2]; 5.0 mg/kg): 3 animals; No. of animals with histologic score 4 (Pneumocystis carinii [2]; 5.0 mg/kg): 0 animals; Mean Histologic Score (Pneumocystis carinii [2]; 5.0 mg/kg): 2.1
1,4-bis[5-amidino-2-benzimidazolyl]propane [Compound 7]		10 animals	2 animals	0 animals	0 animals	0 animals	0.6		Cysts/g Lung (% of Control) (Pneumocystis carinii [1]; [7]): 1.67 % of Control; Toxicity [3]: 0; IC50 (Giardia lamblia): 8.15 ± 6.9 µM
N=C(N)c1ccc(OCCCCCOc2ccc(C(=N)N)cc2)cc1 [pentamidine isethionate]									side effects / fatalities [4]: Some fatalities have been attributed to severe hypotension, hypoglycemia, and cardiac arrhythmias
N=C(N)c1ccc(OCCCCCOc2ccc(C(=N)N)cc2)cc1 [Pentamidine, reference compound]		12 animals	38 animals	17 animals	4 animals	0 animals			response vs control in vivo at 10 mg/kg (Pneumocystis carinii [1]): 3.13%
c1cc2[nH]c(CCCc3nc4cc(C5=NCCN5)ccc4[nH]3)nc2cc1C1=NCCN1 [Compound 6]	49.5 ± 7.8 µM	1 animals	7 animals	3 animals	1 animals	0 animals	1.4	9.23%	
N=C(N)c1ccc2nc(CCc3nc4ccc(C(=N)N)cc4[nH]3)[nH]c2c1 [Compound 3, 1,2-bis[5-amidino-2-benzimidazolyl]ethane]	0.33 ± 0.15 µM	7 animals	3 animals	0 animals	0 animals	0 animals	0.7	2.05%	
N=C(N)c1ccc2nc(Cc3nc4ccc(C(=N)N)cc4[nH]3)[nH]c2c1 [Compound 1, bis[5-amidino-2-benzimidazolyl]methane]	307 ± 28.3 µM	7 animals	1 animals	0 animals	0 animals	0 animals	0.6		Toxicity [3]: 0
N=C(N)c1ccc2nc(CCCc3nc4ccc(C(=N)N)cc4[nH]3)[nH]c2c1 [Compound 5, 1,3-bis[5-amidino-2-benzimidazolyl]propane]	32.5 ± 6.4 µM	0 animals	1 animals	1 animals	7 animals	3 animals	3.0	64.6%	
c1cc2[nH]c(CCCCc3nc4cc(C5=NCCN5)ccc4[nH]3)nc2cc1C1=NCCN1 [Compound 8]	14.5 ± 3.5 µM	12 animals	0 animals	0 animals	0 animals	0 animals	0.5	0.07%	activity against PCP when administered orally (Pneumocystis carinii [5]; oral, daily dose of 25 mg/kg): exhibited some activity against PCP; potency as an anti-PCP agent relative to pentamidine (Pneumocystis carinii [5]; vs. pentamidine): over four times more potent; toxicity relative to the parent compound ([3]; vs. pentamidine (parent compound)): significantly less toxic than the parent compound
